In publication PMC5707064, “Proteoglycan-targeting applied to hypoxia-activated prodrug therapy in chondrosarcoma: first proof-of-concept” (Oncotarget, 2017):
Like-named read-outs stand apart in the source and are kept apart here.

Experiments:
HEMC-SS spheroids = assay: In vitro proliferation assay (AlamarBlue), HEMC-SS Day 10 spheroids; format: cell-based, human; conditions: for IC50: Homo sapiens, 24 hours exposure then 48 hours in normoxia; for HCR (hypoxic-cytotoxic ratio) Spheroids: normoxia vs hypoxia IC50
Procedure: To generate HEMC-SS spheroids, cells were harvested from culture flasks by trypsinization and seeded in 96-well non-adherent plates (Nunc) with 100 μL of 0.5% methylcellulose (Bio-Techne) diluted in the corresponding medium at a density of 1000 cells per well. Cultures were maintained in a 5% CO2 humidified environment at 37°C.
(§1) After trypsinization, HEMC-SS cells were seeded in 96-well plates at a density of 20.10^3 cells in 150 μL of the corresponding culture medium and allowed to adhere overnight. For 3D cell culture, Day 10 spheroids were used. Increasing drug concentrations diluted in DMSO (maintaining final DMSO concentration at 0.5% (v/v)) were added. After plate incubations for 24 hours in normoxic (21% O2, 5% CO2, 37 °C) or hypoxic (N2, O2 < 0.3%, 37 °C) conditions, the culture media were removed and 2D and 3D cells were washed with PBS and left to grow for 48 hours in normoxic conditions. Viability of cells cultured in monolayer or spheroids was quantified by AlamarBlue assay. Cytotoxic activity was expressed as the drug concentration that inhibited cell growth by 50% (IC50). Experiments were performed in triplicates. Data are represented as means ± SD. Statistical significance was determined using one-way ANOVA followed by Tukey's post-hoc multiple comparisons test. Results were considered significant at p < 0.05.

[1] = tested on: HEMC-SS chondrosarcoma cells (monolayer); assay: In vitro proliferation assay (AlamarBlue), HEMC-SS monolayer culture; format: cell-based, human; conditions: for IC50: Homo sapiens; for HCR (hypoxic-cytotoxic ratio) Monolayer: normoxia vs hypoxia IC50
Procedure: Human HEMC-SS chondrosarcoma cell line was obtained from the European Collection of Authenticated Cell Cultures and cultured in DMEM/F12 medium (Life Technologies) supplemented with 10% fetal calf serum (Dutscher) and 4 μg/mL gentamicin.
as §1

[2] = Side-effect evaluation (mouse weight, hematology, articular cartilage); format: in vivo, SCID mice; conditions: compared to controls; for Mouse weight loss during treatment: 6 i.v. injections at 4-day intervals
Procedure: To assess side effects, mouse weight was monitored and pathology analyses on healthy articular cartilage and hematological analyses were carried out at 24 hours after the last injection. Approximately 50 μL of blood, obtained by retro-orbital sampling, were analyzed on a Melet Schloesing MS9-5 Hematology Analyzer (n = 5 blood samples per group of treatment) (Diamond diagnostics).
Mouse paws (n = 5 per group of treatment) were fixed in 10% neutral buffer formalin, decalcified with 4.13% EDTA and 0.2% paraformaldehyde in PBS for 96 hours using KOS microwave tissue processor (Milestone), and embedded in paraffin. Then, 4–5-μm thick sections were stained by Toluidine Blue (pH 2.5) to visualize aggrecan or by Masson trichrome to visualize collagen. All images were captured with NanoZoomer (Hamamatsu).

HEMC-SS xenograft model = assay: In vivo antitumor efficacy on HEMC-SS xenograft model; design: species or system SCID mice; conditions: for Antitumor effect (tumor volume vs controls): 6 i.v. injections at 4-day intervals, 8-QA and 8 47.0 μmol/kg, 10-QA 46.7 μmol/kg
Procedure: In vivo studies were carried out on 50 female Severe Combined ImmunoDeficiency (SCID) mice aged 4–5 weeks old (Janvier Labs). All animal studies were carried out in accordance with the directive 2010/63/EU after approval by the institutional review board (C2E2A, authorization #CE85-12).
To obtain in vivo tumors, 10^7 HEMC-SS cells in 100 μL of PBS were injected with 100 μL of Matrigel® (BD Biosiences) subcutaneously into the right flank of the mice.
The antitumor efficiency of 8-QA was first studied respectively to its non-QA equivalent (8) used as negative control for proteoglycan targeting. In a second independent study, we evaluated the antitumor activity of non-hypoxia activated derivative (10-QA) used as negative control of hypoxia activation, respectively to another control group. For both studies, at 21 days post-cell inoculation mice were randomized into three or two groups (10–12 animals per group). Treatment protocol consisted in 6 doses at 4-day intervals injected by i.v route: 8-QA (47.0 μmol/kg) and 10-QA (46.7 μmol/kg)were injected at 50% of Maximum Tolerated Dose (MTD) while non-targeted derivative 8 (47.0 μmol/kg) was injected at equimolar dose of 8-QA. All molecules were diluted in saline with 2% ethanol. Control animals received vehicle according to the same schedule.
Tumor volume (TV) was calculated using the following formula:
TV (mm^3) = [length x (width)^2]/2.
Tumor Growth Inhibition (TGI) was calculated as follows: TGI (%) = [1-(Tn/Cn)] × 100, where Tn is the tumor volume of the treated group at day n and Cn the tumor volume of the control group at day n.
Data are represented as means ± SD. For antitumor efficiency and mouse weight monitoring, statistical significance was determined using two-way ANOVA. For tumor weight, mitosis number and hematological analyses, statistical significance was determined using one-way ANOVA. Both tests were followed by Tukey's post-hoc multiple comparisons test. Results were considered significant at p < 0.05.

[3] = tested on: aggrecan from bovine articular cartilage; assay: Surface plasmon resonance (SPR) binding to immobilized aggrecan; conditions: for Binding to aggrecan (sensorgrams): analytes injected at 0.0625-1 mM, 600 seconds; for Kd: steady-state affinity analysis, ligand: immobilized aggrecan, triplicate, read-out: Dissociation constant (KD)
Procedure: SPR assay was carried out on a Biacore T200 instrument (GE Healthcare) with a CM4 sensor chip (GE Healthcare). To immobilize aggrecan from bovine articular cartilage (Sigma-Aldrich), the sensor chip was first activated using a 1:1 mixture of 0.2 M 1-ethyl-3-(3-dimethylaminopropyl)carbodiimide hydrochloride and 0.5 M N-hydroxysuccinimide (amine coupling kit, GE Healthcare) at a flow rate of 5 μL/min for 10 minutes. Aggrecan was then coated on the sensor chip at 400 μg/mL in running buffer HBS-P^+ 1X (0.01 M HEPES, 0.15 M NaCl, 0.05% v/v surfactant p20, pH 7.4) with 6 mM hexadecyltrimethylammoniumbromide (CTAB) at 5 μL/min to a level of ~500 response units. Unoccupied binding sites were blocked using 1 M ethanolamine (pH 8.5) (Amine coupling kit, GE Healthcare) at 5 μL/min during 10 minutes. The studied molecules (analytes) were diluted in running buffer HBS-P^+ 1X before application to the sensor chip at 30 μL/min. Regeneration of the sensor chips was achieved using 2 M NaCl solution during 150 seconds. Dissociation constants (KD) were determined using Biacore T200 Evaluation software with a “steady-state affinity analysis” after injection of five different concentrations of analytes.

[4] = hypoxia (N2, O2 < 0.3%), read-out: IC50 Spheroids Hypoxia
[5] = normoxia (21% O2), read-out: IC50 Spheroids Normoxia
[6] = hypoxia (N2, O2 < 0.3%), 24 hours exposure then 48 hours in normoxia, read-out: IC50 Monolayer Hypoxia
[7] = normoxia (21% O2), 24 hours exposure then 48 hours in normoxia, read-out: IC50 Monolayer Normoxia

| Structure (SMILES) | IC50 (HEMC-SS spheroids; [4]) | IC50 (HEMC-SS spheroids; [5]) | S/M (spheroid/monolayer cytotoxic ratio) Hypoxia (HEMC-SS spheroids) | S/M (spheroid/monolayer cytotoxic ratio) Normoxia (HEMC-SS spheroids) | HCR (hypoxic-cytotoxic ratio) Spheroids (HEMC-SS spheroids) | IC50 [1, 6] | IC50 [1, 7] | HCR (hypoxic-cytotoxic ratio) Monolayer [1] | Mouse weight loss during treatment [2] | White blood cell count ([2]; 24 hours after the last dose) | Antitumor effect (tumor volume vs controls) (HEMC-SS xenograft model) | Binding to aggrecan (sensorgrams) [3] | IC50 ([1]; read-out: IC50 (cytotoxicity in any of the experimental conditions)) | Kd [3] | Tumor growth inhibition (TGI) at D41 (HEMC-SS xenograft model; 47 μmol/kg i.v., q4d x 6, day after last injection (D41)) | Tumor weight (HEMC-SS xenograft model; one day after the last injection, normalized to control group) |
| --- | --- | --- | --- | --- | --- | --- | --- | --- | --- | --- | --- | --- | --- | --- | --- | --- |
| CCCNP(=O)(OCc1cnc([N+](=O)[O-])n1C)N(CCCl)CCCl (centres unmarked) [compound 8] | 5.7 ± 1.2 µM | 99.4 ± 5.2 µM | 1.3 | 3.1 | 17.4 | 4.3 ± 1.2 µM | 32.5 ± 4.3 µM | 7.5 | did not cause any weight loss | significant decrease in white blood cell count | no antitumor efficacy | no affinity | – | – | – | – |
| C[N+](C)(C)CCCNP(=O)(OCc1ccccc1)N(CCCl)CCCl (centres unmarked) [10-QA] | > 200 µM | > 200 µM | – | – | – | > 200 µM | > 200 µM | – | did not cause any weight loss | – | no antitumor effect | dose-dependent binding | > 200 µM | 4100 µM | – | – |
| Cn1c(COP(=O)(NCCC[N+](C)(C)C)N(CCCl)CCCl)cnc1[N+](=O)[O-] (centres unmarked) [8-QA] | 31.8 ± 5.5 µM | 101 ± 32.6 µM | 7.4 | 3.4 | 3.1 | 4.3 ± 1.2 µM | 29.3 ± 8 µM | 6.8 | did not cause any weight loss | – | significant antitumor effect | dose-dependent binding | – | 890 µM | 62.1% | significant decrease |
